In article PMC4735555, “Crystal structure of the N-myristoylated lipopeptide-bound MHC class I complex” (Nature Communications, 2016):

System: Mamu-B*098
Assay: X-ray crystal structure of the Mamu-B*098:C14nef5 complex
Type: binding, rhesus macaque
Conditions: crystal structure at 1.76 Å, Mamu-B*098 with Cys167 mutated to Ser, rhesus β2m; PDB 4ZFZ
Procedure: Recombinant proteins were prepared as described previously with some modifications. Briefly, DNA constructs encoding the ectodomain of Mamu-B*098 (from Gly1 to Pro276 with the unpaired Cys167 mutated to Ser and a Met-Ala added to the N terminus) and rhesus β2m (from Ile1 to Met99 with a Met-Ala added to the N terminus) were synthesized and cloned into pLM1. The expression plasmids were introduced into the E. coli Rosetta 2 (DE3) pLysS strain (Novagen, Madison, WI) and colonies were inoculated into a Terrific Broth supplemented with 50 μg ml^−1 ampicillin. Isopropyl-β-D-thiogalactoside was added to the culture at a final concentration of 0.5 mM when the OD600 value of the culture reached 0.5. After an additional 6-h culture, bacteria were harvested and lysed in a buffer containing 50 mM Tris-HCl pH 8.0, 1 mM EDTA, 0.1% NaN3, 10 mM dithiothreitol (DTT), 100 mM NaCl, 1% Triton X-100, 1% deoxycholate and 5 mM MgCl2, followed by a treatment with DNase I. After 6 h of stirring, the samples were centrifuged and the pellets were washed twice with a wash buffer containing 50 mM Tris-HCl pH 8.0, 1 mM EDTA, 0.1% NaN3, 1 mM DTT, 100 mM NaCl and 0.5% Triton X-100, and once with a rinse buffer containing 50 mM Tris-HCl pH 8.0, 1 mM EDTA, 0.1% NaN3 and 1 mM DTT. […]

In the case of “C14-Gly-Gly-Ala-Ile-Ser [C14nef5, N-myristoylated 5-mer peptide (C14-Gly-Gly-Ala-Ile-Ser; C14nef5) derived from the SIV Nef protein]”, the “electron density in the Ag-binding groove of Mamu-B*098” value is reported as “Continuous electron density corresponding to C14nef5 was observed in the Ag-binding groove”.
